IC50 data for 38 molecules are collected here from patent EP1501514B1, “PROTEIN KINASE MODULATORS AND METHODS OF USE” (Exelixis, Inc., priority 2002, dated 2003).

Molecules are shown by their SMILES.

The target in one assay is T1, Chk1 (Homo sapiens, UniProt O14757).
T1 construct: purchased Upstate Biotechnology
T1 sequence (O14757 1-476): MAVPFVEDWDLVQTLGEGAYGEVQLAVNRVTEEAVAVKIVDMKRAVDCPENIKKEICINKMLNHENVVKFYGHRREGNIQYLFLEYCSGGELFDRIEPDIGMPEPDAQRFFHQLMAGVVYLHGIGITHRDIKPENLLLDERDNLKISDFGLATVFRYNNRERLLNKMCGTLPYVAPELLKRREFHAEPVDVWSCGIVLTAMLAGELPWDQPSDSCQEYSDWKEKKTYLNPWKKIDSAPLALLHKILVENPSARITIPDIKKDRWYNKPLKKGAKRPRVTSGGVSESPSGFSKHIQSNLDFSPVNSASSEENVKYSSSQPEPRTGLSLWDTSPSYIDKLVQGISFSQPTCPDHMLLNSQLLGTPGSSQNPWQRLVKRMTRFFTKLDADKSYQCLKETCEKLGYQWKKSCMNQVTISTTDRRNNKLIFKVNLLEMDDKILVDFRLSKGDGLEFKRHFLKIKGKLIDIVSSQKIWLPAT
The assay can be described thus: Chk1 assay: incorporation of γ-33P ATP into immobilized myelin basic protein. The assay is classed as biochemical. Particulars: Table 11; Chk1 only. The procedure:
Chk1 and Chk2 assays were performed by measuring incorporation of γ-^33P ATP into immobilized myelin basic protein (MBP). High binding white 384 well plates (Greiner) were coated with MBP (Sigma #M-1891) by incubation of 60ul/well of 20µg/ml MBP in Tris-buffered saline (TBS; 50mM Tris pH 8.0, 138mM NaCl, 2.7mM KCl) for 24 hours at 4° C. Plates were washed 3X with 100µl TBS. Kinase reactions were carried out in a total volume of 34µl in kinase buffer (5mM Hepes pH 7.6, 15mM NaCl, 0.01% bovine gamma globulin (Sigma #I-5506), 10mM MgCl2, 1mM DTT, 0.02% TritonX-100). Compound dilutions were performed in DMSO and added to assay wells to a final DMSO concentration of 1%. Each data point was measured in duplicate, and at least two duplicate assays were performed for each individual compound determination. Chkl and Chk2 enzymes (Upstate Biotechnology) were added to final concentrations of 10nM (Chkl) or 20nM (Chk2). A mixture of unlabeled ATP and γ-^33P ATP was added to start the reaction (2x10^6 cpm of γ-^33P ATP per well (3000Ci/mmole) and either 10µM or 30µM unlabeled ATP (for Chkl and Chk2 assays respectively). The reaction was carried out for 1 hour at room temperature with shaking. Plates were washed 7x with TBS, followed by the addition of 50µl/well scintillation fluid (Wallac). Plates were read using a Wallac Trilux counter. This is only one format of such assays, various other formats are possible, as known to those skilled in the art.
The above assay procedure can be used to determine the IC50 for inhibition and/or the inhibition constant Ki. The IC50 is defined as the concentration of compound required to reduce the enzyme activity by 50% under the conditions of the assay. […] The Ki for a compound may be determined from the IC50 based on three assumptions. First, only one compound molecule binds to the enzyme and there is no cooperativity. […] Third, the enzymatic rate of the enzyme-inhibitor complex is zero. The rate (i.e., compound concentration) data are fitted to the equation: V = Vmax E0 [I-((E0+I0+Kd)-sqrt(((E0+I0+Kd))^2 -4E0 I0))/(2E0)] [formula]
The IC50 is the point on the concentration scale where inhibition reaches its midpoint. A higher IC50 goes with a need for much substance. Take `NC(=O)c1nc(-c2cccc(OC(F)(F)F)c2)cnc1N` [compound 28, 3-amino-6-{3-[(trifluoromethyl)oxy]phenyl}pyrazine-2-carboxamide]: the IC50 lay in the range of 1 to 10 µM.
Regarding `NC(=O)c1cccc(-c2cnc(N)c(C(N)=O)n2)c1` [compound 29, 3-amino-6-[3-(aminocarbonyl)phenyl]pyrazine-2-carboxamide], the IC50 fell in the range of 1 to 10 µM.
On the same count and under the same terms, the same measure for `CC(=O)Nc1cccc(-c2cnc(N)c(C(N)=O)n2)c1` [compound 30, 6-[3-(acetylamino)phenyl]-3-aminopyrazine-2-carboxamide]: 1 to 10 µM; for `NC(=O)c1nc(-c2ccc(-c3ccccc3)cc2)cnc1N` [compound 31, 3-amino-6-biphenyl-4-ylpyrazine-2-carboxamide]: over 10 µM; for `CN(C)c1ccc(-c2cnc(N)c(C(N)=O)n2)cc1` [compound 32, 3-amino-6-[4-(dimethylamino)phenyl]pyrazine-2-carboxamide]: 1 to 10 µM.
Take `Cc1cccc(-c2cnc(N)c(C(N)=O)n2)c1` [compound 33, 3-amino-6-(3-methylphenyl)pyrazine-2-carboxamide]: the IC50 was 1 to 10 µM.
In turn, `COC(=O)c1cccc(-c2cnc(N)c(C(N)=O)n2)c1` [compound 34, methyl 3-[5-amino-6-(aminocarbonyl)pyrazin-2-yl]benzoate] displayed an IC50 of 1 to 10 µM.
On the same count and under the same terms, under `NC(=O)c1nc(-c2cccc(OCc3ccccc3)c2)cnc1N` [compound 35, 3-amino-6-{3-[(phenylmethyl)oxy]phenyl}pyrazine-2-carboxamide] stands 0.05 to 1 µM; under `NC(=O)c1nc(-c2cccc(O)c2)cnc1N` [compound 36, 3-amino-6-(3-hydroxyphenyl)pyrazine-2-carboxamide], 0.05 to 1 µM; under `NC(=O)c1nc(-c2cc3ccccc3o2)cnc1N` [compound 37, 3-amino-6-(1-benzofuran-2-yl)pyrazine-2-carboxamide], over 10 µM.
Still for that read-out and setting: under `CNc1ncc(-c2ccccc2)nc1C(N)=O` [compound 38, 3-(methylamino)-6-phenylpyrazine-2-carboxamide] stands over 10 µM; under `NC(=O)c1nc(-c2cccc(-c3ccccc3)c2)cnc1N` [compound 41, 3-amino-6-biphenyl-3-ylpyrazine-2-carboxamide], 0.05 to 1 µM.
The same measure, in the same setting: under `NC(=O)c1nc(-c2cccc(C(=O)O)c2)cnc1N` [compound 42, 3-[5-amino-6-(aminocarbonyl)pyrazin-2-yl]benzoic acid] stands over 10 µM; under `NC(=O)c1nc(-c2ccc(OCc3ccccc3)cc2)cnc1N` [compound 43, 3-amino-6-{4-[(phenylmethyl)oxy]phenyl}pyrazine-2-carboxamide], over 10 µM; under `CNC(=O)c1nc(-c2cccc(OCc3ccccc3)c2)cnc1N` [compound 44, 3-amino-N-methyl-6-{3-[(phenylmethyl)oxy]phenyl}pyrazine-2-carboxamide], 1 to 10 µM.
In the case of `CNC(=O)c1nc(-c2cccc(O)c2)cnc1N` [compound 45, 3-amino-6-(3-hydroxyphenyl)-N-methylpyrazine-2-carboxamide], the IC50 lay in the range of 0.05 to 1 µM.
The same measure, in the same setting: under `COCCNC(=O)c1nc(-c2ccccc2)cnc1N` [compound 46, 3-amino-N-[2-(methyloxy)ethyl]-6-phenylpyrazine-2-carboxamide] stands 1 to 10 µM; under `CC(=O)NCCNC(=O)c1nc(-c2ccccc2)cnc1N` [compound 47, N-[2-(acetylamino)ethyl]-3-amino-6-phenylpyrazine-2-carboxamide], over 10 µM; under `NNC(=O)c1nc(-c2ccccc2)cnc1N` [compound 48, 3-amino-6-phenylpyrazine-2-carbohydrazide], 1 to 10 µM.
The same measure, in the same setting: the same measure for `Nc1ncc(-c2ccccc2)nc1C(=O)NO` [compound 49, 3-amino-N-hydroxy-6-phenylpyrazine-2-carboxamide]: 1 to 10 µM.
`CCOc1cccc(-c2cnc(N)c(C(=O)NC)n2)c1` [compound 50, 3-amino-6-[3-(ethyloxy)phenyl]-N-methylpyrazine-2-carboxamide] registered an IC50 of 1 to 10 µM.
Same read-out and setting: under `CCOc1ccc(-c2cnc(N)c(C(=O)NC)n2)cc1` [compound 52, 3-amino-6-[4-(ethyloxy)phenyl]-N-methylpyrazine-2-carboxamide] stands 1 to 10 µM.
The same measure, in the same setting: under `CNC(=O)c1nc(-c2cccc(C)c2)cnc1N` [compound 53, 3-amino-N-methyl-6-(3-methylphenyl)pyrazine-2-carboxamide] stands 0.05 to 1 µM; under `CNC(=O)c1nc(-c2ccc(OC)cc2)cnc1N` [compound 54, 3-amino-N-methyl-6-[4-(methyloxy)phenyl]pyrazine-2-carboxamide], 1 to 10 µM; under `CNC(=O)c1nc(-c2cccc(-c3ccccc3)c2)cnc1N` [compound 55, 3-amino-6-biphenyl-3-yl-N-methylpyrazine-2-carboxamide], 0.05 to 1 µM.
On to `CNC(=O)c1nc(-c2cccc(NC(C)=O)c2)cnc1N` [compound 56, 6-[3-(acetylamino)phenyl]-3-amino-N-methylpyrazine-2-carboxamide], for which the IC50 was in the range of 0.05 to 1 µM.
As to `CNC(=O)c1nc(-c2ccc(F)c(C)c2)cnc1N` [compound 61, 3-amino-6-(4-fluoro-3-methylphenyl)-N-methylpyrazine-2-carboxamide], the IC50 was in the range of 0.05 to 1 µM.
Still for that read-out and setting: under `CNC(=O)c1nc(-c2cccnc2)cnc1N` [compound 62, 3-amino-N-methyl-6-pyridin-3-ylpyrazine-2-carboxamide] stands 1 to 10 µM.
Same read-out and setting: the same measure for `CNC(=O)c1cccc(-c2cnc(N)c(C(=O)NC)n2)c1` [compound 64, 3-amino-N-methyl-6-{3-[(methylamino)carbonyl]phenyl}pyrazine-2-carboxamide]: 1 to 10 µM.
Regarding `CNC(=O)c1nc(-c2cccc(C(C)=O)c2)cnc1N` [compound 65, 6-(3-acetylphenyl)-3-amino-N-methylpyrazine-2-carboxamide], the IC50 was in the range of 1 to 10 µM.
Still for that read-out and setting: under `CNC(=O)c1nc(-c2noc(-c3cccnc3)n2)cnc1N` [compound 66, 3-amino-N-methyl-6-(5-pyridin-3-yl-1,2,4-oxadiazol-3-yl)pyrazine-2-carboxamide] stands over 10 µM.
On the same count and under the same terms, the same measure for `CNC(=O)c1nc(-c2noc(C3CCCCC3)n2)cnc1N` [compound 68, 3-amino-6-(5-cyclohexyl-1,2,4-oxadiazol-3-yl)-N-methylpyrazine-2-carboxamide]: over 10 µM.
Same read-out and setting: under `CNC(=O)c1nc(-c2noc(C)n2)cnc1N` [compound 71, 3-amino-N-methyl-6-(5-methyl-1,2,4-oxadiazol-3-yl)pyrazine-2-carboxamide] stands 1 to 10 µM.
Molecule `CNC(=O)c1nc(-c2noc(-c3ccncc3)n2)cnc1N` [compound 73, 3-amino-N-methyl-6-(5-pyridin-4-yl-1,2,4-oxadiazol-3-yl)pyrazine-2-carboxamide] showed an IC50 of over 10 µM.
The same measure, in the same setting: the same measure for `Cc1cccc(-c2cnc(N)c(C(=O)NCCO)n2)c1` [compound 329, 3-amino-N-(2-hydroxyethyl)-6-(3-methylphenyl)pyrazine-2-carboxamide]: 1 to 10 µM; for `CNC(=O)c1nc(-c2cccc(C(=O)NCc3ccc(C(C)(C)C)cc3)c2)cnc1N` [compound 353, 3-amino-6-{3-[({[4-(1,1-dimethylethyl)phenyl]methyl}amino)carbonyl]phenyl}-N-methylpyrazine-2-carboxamide]: 0.05 to 1 µM.

Staying with this assay, now noted: Table 11; inhibition given as IC50 class symbol.
Take `CC(C)(C)c1nnc(-c2nc(-c3cccc(CO)c3)cnc2N)[nH]1` [compound 569, (3-{5-amino-6-[5-(1,1-dimethylethyl)-4H-1,2,4-triazol-3-yl]pyrazin-2-yl}phenyl)methanol]: the IC50 was in the range of 1 to 10 µM.
For `C[C@@H](NC(=O)c1cccc(-c2cnc(N)c(C(=O)N[C@H]3CCNC3)n2)c1)c1ccccc1` [compound 716, 3-amino-6-[3-({[(1R)-1-phenylethyl]amino}carbonyl)phenyl]-N-[(3S)-pyrrolidin-3-yl]pyrazine-2-carboxamide], the IC50 is 1 to 10 µM.
